Values of other authors, collected in PMC3735122 (mBio, 2013).

System: seasonal H3N2 isolates with R292K NA mutation
Conditions: cited from earlier work
In the case of `CC(=O)N[C@H]1[C@H]([C@H](O)[C@H](O)CO)OC(C(=O)O)=C[C@@H]1N=C(N)N` [zanamivir], the “sensitivity of seasonal H3N2 isolates with R292K mutation” value (shortened to “sensitivity of seasonal H3N2 isolates”) is given as “slightly reduced sensitivity”. For `CCC(CC)O[C@@H]1C=C(C(=O)O)C[C@H](N)[C@H]1NC(C)=O` [oseltamivir carboxylate], the “sensitivity of seasonal H3N2 isolates” value is listed as “significantly reduced sensitivity”. In the case of `CCC(CC)[C@H](NC(C)=O)[C@@H]1[C@H](O)[C@@H](C(=O)O)C[C@H]1N=C(N)N` [peramivir], the “sensitivity of seasonal H3N2 isolates” value is listed as “intermediate resistance”.
